Test results taken from patent US5482975A, “Adenosine diphosphoribose polymerase binding nitroso aromatic compounds useful as retroviral inactivating agents, anti-retroviral agents and anti-tumor agents” (priority 1993, dated 1996).
Entries after “also recorded” stand apart in the source; their conditions may differ.

Tests used:
855-2 cells [1] = test: [3H] thymidine uptake / growth, 855-2 cells (FIG. 2A, E, F; FIG. 3); format: cell-based, human
Protocol: FIGS. 2A-2F are a composite of graphs displaying the inhibitory effects of the ADRPT ligands on (FIG. 2A) 855-2 cells (a cell line of human B-cell lineage acute lymphoblastic leukemia), (FIG. 2B) H9 cells (a cell line of human T-cell lineage acute lymphoblastic leukemia), FIG. (2C) HL-60 cells (a cell line of human acute nonlymphoblastic leukemia) and (FIG. 2D) K562 cells (a cell line of human chronic myelogenous leukemia). These cells were cultured while under the influence of the growth factors in 10% fetal bovine serum (FCS), whereas in (FIG. 2E) and (FIG. 2F) the 855-2 cells were cultured in the presence of autocrine growth factor activity (AGF) or low molecular weight-B-cell growth factor (BCGF, a T-cell derived lymphokine), respectively.
Experiments using HL-60 cells (FIG. 2C) provided similar conclusions.
855-2 cells that were grown in media with (1) 10% fetal bovine serum, (2) autocrine growth factor (AGF) and (3) low molecular weight-BCGF (a T cell derived lymphokine) were exposed to increasing concentrations of the ADRPT ligands.

855-2 cells [2] = test: cytocidal activity, MTT assay; format: cell-based, human; details: 10 μM; 100,000 cells/ml
Protocol: MTT (3-[4,5-[…]]-2,5-diphenyltetrazolium bromide) at 1 mg/ml was then added for 16 hours. The absorbance of the pelleted cell was then measured at 550 nm after adding DMSO to solubilze the cells.

H9 cells = test: [3H] thymidine uptake, H9 cells (FIG. 2B); format: cell-based, human; details: 250 μM; 10% FCS
[3] = system: various cancer cells (855-2, HL-60, D32, D37, CRL 7712, 186 medulla, L1210, MDA-468); test: functions of various cancer cells in presence of compounds (FIGS. 4-9); format: cell-based; details: summary statement
Protocol: (§1) Experiments were performed in which the functions of various cancer cells (855-2 and HL-60 leukemia cells, D32, D37 and CRL 7712 glioblastoma cell lines, 186 medulla tumor cell line, L1210 murine leukemia cell line, MDA-468 human breast tumor cell line) and normal cells (neutrophil leukocytes and bone marrow or peripheral blood stream cells) were assessed in the absence or presence of the compounds.

HIV-1 = test: inhibition of HIV infection, virus titer in stimulated human lymphoblasts; format: cell-based; details: 10 μM; 30 min exposure, day 10; virus alone 5.25
Protocol: VIII. Anti-HIV action of NOBP, NOBA and NOQ on stimulated human lymphoblasts.
Exposure to the two drugs was only for 30 minutes at the commencement of viral infection, and drugs were never re-added. The results given in Table III provide the ID50 of HIV titer 10 days after infection of cell cultures with HIV.

855-2 cells [4] = test: colony formation (CFU) of leukemic cells in semi-solid medium (FIG. 4); format: cell-based, human
Protocol: as §1

Zn(HIV1-F1) = Zn(HIV1-F1) (Human immunodeficiency virus type 1 lw12.3 isolate, UniProt Q70622); test: NMR study of Zn ejection from HIV-1 NC zinc finger peptide; format: biochemical; parameters: parent Gag (Gag-Pol) polyprotein
Protocol: The * and + symbols denote the aromatic proton signals of the zinc-coordinated and zinc-free His 9 residue. Upon completion of the reaction, reflected by complete ejection of zinc (t=90 min), 50% of the NOBA remained unreacted indicating a 1:1 reaction stoichiometry. NOBA (3-nitrosobenzamide), was synthesized described elsewhere in this application.
To determine if NOBA is capable of ejecting zinc from retroviral-type zinc fingers, NMR studies were performed on a peptide with amino acid sequence corresponding to the N-terminal CCHC zinc finger of the HIV-1 NC protein, Zn(HIV1-F1), South, et al., J. Am. Chem. Soc. 111:395-396 (1989), South, et al., Biochem Pharm. 40:123-129 (1990 ), Summers, et al., Biochemistry 29:329-340 (1990). NMR spectra of Zn(HIV-F1) were performed before and after the addition of NOBA (3-nitrosobenzamide). […] Chem Soc. 111:395-396 (1989), and three-dimensional structural studies have shown that the peptide adopts a structure that is essentially identical to the structure of the corresponding region in the intact NC protein, South, et al., Biochemistry 29:7786-7789 (1990). The down-field region of the ^1 H NMR spectrum showing the signals due to the aromatic proton of His 9 and Phe 2 is illustrated in FIG. 10 (bottom). Addition of two molar equivalents of NOBA results in the loss of the signals due to zinc-bound histidine (denoted by *) and the appearance of broad signals representative of zinc-free histidine (denoted by +). Other signals in the spectrum are due to NOBA protons. […] By comparison, a 10-fold molar excess of EDTA is required to remove zinc from Zn(HIV-1-F1), Summers, et al., J. Cell Biochem 45:41-48 (1991).

[5] = system: human leukemia cell lines (855-2, H9, HL-60, K562); test: [3H] thymidine uptake, human leukemia cell lines together; format: cell-based; details: 10 μM; each of the cell lines tested
HL-60 cells = test: colony formation (CFU) of leukemic cells in semi-solid medium (FIG. 4); format: cell-based, human
Protocol: as §1

anti-tumor and anti-HIV = test: biological action of nitroso compounds (anti-tumor and anti-HIV, summary); format: cell-based; details: effective even after exposure of cells as short as 30 minutes
[6] = target: T1, Zn(HIV1-F1) oligonucleotide complex (Human immunodeficiency virus type 1 lw12.3 isolate, UniProt Q70622); test: NMR study of Zn(HIV1-F1) nucleic acid binding; format: biochemical, HIV-1; details: two equivalents NOBA
T1 construct: NC cut from Gag polyprotein (Pr55Gag)
Source text: The downfield regions of the spectra show the signals of the aromatic and ribose H1' protons, and the upfield region contain signals of the methyl group protons. Dramatic spectral changes occur upon addition of oligonucleotide to Zn(HIV1-F1), including large upfield shifts of the Phe 2 and Ile 10 side chain=n signals and a downfield shifting and broadening of the guanosine-H8 proton signal (second from the top).
The reaction mechanism, schematically illustrated in FIG. 12, is consistent with the result of NMR analysis in FIGS. 10 and 11. The reaction mechanism proposed in FIG. 12 is a useful model but is not intended to limit the scope of the claimed invention.

NC(=O)c1cccc(N=O)c1 [NOBA, 3-nitrosobenzamide]
growth arrest in increasing FCS (855-2 cells [1]; 10 μM, increasing FCS concentrations): Growth arrest occurs irrespective of the concentration of FCS
inhibitory effects with different growth factors (855-2 cells [1]; 10% fetal bovine serum, AGF or BCGF): potent inhibitory effects
cell killing (855-2 cells [2]): complete killing
inhibition of thymidine uptake (H9 cells): almost complete inhibition
effectiveness against tumor cells [3]: highly effective
Virus Titer (log ID50) (HIV-1): 1.05 log ID50
ability to form colonies (CFU) (855-2 cells [4]): inhibit the ability
time to complete ejection of zinc (Zn(HIV1-F1); 2 mM NOBA, 1 mM Zn(HIV1-F1), D2O, pH*=6.2, 30° C.): 90 min
NOBA remaining unreacted on completion (Zn(HIV1-F1); 2 mM NOBA, t=90 min): 50%
stoichiometry of reaction (Zn(HIV1-F1); after 90 minutes): reacts stoichiometrically with Zn(HIV1-F1)
zinc-bound His signals (Zn(HIV1-F1); two molar equivalents, after 90 min.): no signals attributable to the zinc-bound His could be detected
inhibition of 3H-thymidine uptake [5]: powerfully inhibited
ability to form colonies (CFU) (HL-60 cells): inhibit the ability
anti-tumor and anti-HIV activity (anti-tumor and anti-HIV): highly active
effect on zinc finger nucleic acid complex [6]: ejection of zinc with concomitant dissociation of the zinc finger nucleic acid complex; also recorded: NOBA-induced zinc ejection leads to loss of high-affinity nucleic acid binding function
